Several values for one entry are separate records, joined by “and”; a condition that tells them apart may be missing. Equal values may be shown once. Read-outs that look alike come from different tables or passages of the source.
Columns and labels:
[1] = test system: E. coli NCTC 13846; experiment: Broth microdilution MIC/MBC, glycosides with or without polymyxins; type: cell-based, Escherichia coli; settings: strain B
[2] = test system: E. coli ATCC 25922; experiment: as above; type: cell-based, Escherichia coli; settings: for MIC: Escherichia coli, ATCC25922
[3] = test system: A. baumannii CQ4322; experiment: as above; type: cell-based, Acinetobacter baumannii; settings: for MIC: Acinetobacter baumannii, CQ4322
[4] = test system: K. pneumoniae CQ4921; experiment: as above; type: cell-based, Klebsiella pneumoniae; settings: for MIC: Klebsiella pneumoniae, CQ4921
[5] = test system: Caco-2 cells; experiment: Resazurin cell viability assay (cytotoxicity); type: cell-based, human; settings: Homo sapiens, Caco-2, 72 h, read-out: IC50
Experimental: (§1) Cytotoxicity of each compound alone or in combination with different polymyxin concentrations was evaluated through the resazurin cell viability assay[49] in human embryonic HEK-293T cells, as well as in human colon adenocarcinoma Caco-2 cells, after a 72-h long incubation period.
(§2) HEK-293T and Caco-2 cells were grown in RPMI 1640 medium (VWR) supplemented with 10% FBS (Biowest), 1% PenStrep (Sigma Aldrich), and 1% glutamine (Biowest) in a humidified incubator at 37 °C with a 5% CO2 atmosphere. Twice a week, the medium was aspirated, the cells were washed with DPBS (VWR), trypsinized with trypsin–EDTA solution (Biowest), and resuspended in fresh culture medium. The dose-dependent effects of each glycoside or glycoside-polymyxin combination were evaluated by the resazurin cell viability assay. Polymyxins (colistin sulfate and PMB sulfate for microbiological assays, European Pharmacopoeia Reference Standards, Sigma-Aldrich) were firstly dissolved in sterilized Mili-Q water to a stock concentration of 1 mg/mL, while glycosides were dissolved in DMSO to a stock concentration of 30 mM. 1.5 × 10^4 cells/well in 96.5 µL of medium were seeded onto 96-well plates and incubated at 37 °C for 24 h. For each compound, ten stock dilutions (with concentrations from 750 to 75 µM) were prepared in fresh medium immediately prior to incubation. 16 µL of each dilution were added to each well so that the final glycoside concentrations ranged from 100 to 10 µM in each row in a final assay volume of 120 µL. In addition, the previously prepared polymyxin stock solutions were diluted in fresh medium, affording new stocks of 8, 4, and 2 µg/mL. The same volume (7.5 µL/well) of PMB or colistin was then added to each row to achieve a final polymyxin concentration of 0.5, 0.25, and 0.125 µg/mL, respectively, regardless of the glycoside concentration. In assays without polymyxin, the same volume (7.5 µL/well) of medium was added. In all assays, the maximum DMSO concentration was 0.33%. After a 72-h incubation at 37 °C, 12 µL of a 0.15 mg/mL resazurin (Sigma-Aldrich) in sterilized Mili-Q water were added to each well, and the plates were left incubating for another 4 h at 37 °C. Resorufin was measured at 570/600 nm, and the percentage of resazurin reduction, corresponding to the cell viability percentage, was calculated according to Eq. (1)[60]. IC50 values were obtained by best fitting the dose-dependent inhibition curves using the Prism 9® software. The results were expressed as the mean ± SD of three independent replicates, with only data from analysis with R^2 > 0.90 being considered.1 %Cellviability=Abssample-Absmediumcontrol/Abscellcontrol-Absmediumcontrol×100

[6] = test system: HEK-293T cells; experiment: Resazurin cell viability assay (cytotoxicity); type: cell-based, human; settings: 72 h, read-out: IC50
Experimental: as §1, §2

[7] = alone, read-out: MICA (MIC of each compound individually)
[8] = combination with the lowest FICI
[9] = compound + colistin, lowest FICI

MIC of colistin in combination with the compound ([1]; Cpd conc. 0.4 μg/mL): > 0.5 µg/mL
MIC of colistin in combination with the compound ([1]; Cpd conc. 0.8 μg/mL): > 0.5 µg/mL
MIC of colistin in combination with the compound ([1]; Cpd conc. 3.125 μg/mL): > 0.5 µg/mL
MIC of colistin in combination with the compound ([1]; Cpd conc. 6.25 μg/mL): > 0.5 µg/mL
MIC of colistin in combination with the compound ([1]; Cpd conc. 12.5 μg/mL): > 0.5 µg/mL
MIC of colistin in combination with the compound ([1]; Cpd conc. […]): > 0.5 µg/mL
MIC ([1]; Escherichia coli, NCTC13846, agent alone, no adjuvant (polymyxin conc. 0), read-out: MIC): > 100 µg/mL
MIC of compound in combination with PMB ([1]; PMB 0.25 μg/mL): > 100 µg/mL
MIC of compound in combination with PMB ([1]; PMB 0.5 μg/mL): > 100 µg/mL
MIC of compound in combination with colistin ([1]; colistin 0.06 μg/mL): > 100 µg/mL
MIC of compound in combination with colistin ([1]; colistin 0.125 μg/mL): > 100|> 100 μg/mL
MIC of compound in combination with colistin ([1]; colistin 0.25 μg/mL): > 100 µg/mL
MIC of compound in combination with colistin ([1]; colistin 0.5 μg/mL): > 100 µg/mL
MIC of colistin in combination with the compound ([2]; Cpd conc. 0.4 μg/mL, strain A): > 0.5 µg/mL
MIC of colistin in combination with the compound ([2]; Cpd conc. 0.8 μg/mL, strain A): > 0.5 µg/mL
MIC of colistin in combination with the compound ([2]; Cpd conc. 3.125 μg/mL, strain A): 0.25 µg/mL
MIC of colistin in combination with the compound ([2]; Cpd conc. 6.25 μg/mL, strain A): 0.125 µg/mL
MIC of colistin in combination with the compound ([2]; Cpd conc. 12.5 μg/mL, strain A): ≤ 0.06 µg/mL
MIC of colistin in combination with the compound ([2]; Cpd conc. […], strain A): 0.5 µg/mL
MIC ([2]; agent alone, no adjuvant (polymyxin conc. 0), strain A, read-out: MIC): > 100 µg/mL
MIC [2, 7]: > 100 µg/mL
MIC of compound in combination with PMB ([2]; PMB 0.25 μg/mL, strain A): 3.1 µg/mL
MIC of compound in combination with PMB ([2]; PMB 0.5 μg/mL, strain A): 3.1 µg/mL
MIC of compound in combination with colistin ([2]; colistin 0.06 μg/mL, strain A): 12.5 µg/mL
MIC of compound in combination with colistin ([2]; colistin 0.125 μg/mL, strain A): 6.3 μg/mL and 6.3|6.3 μg/mL
MIC of compound in combination with colistin ([2]; colistin 0.25 μg/mL, strain A): 3.1 µg/mL
MIC of compound in combination with colistin ([2]; colistin 0.5 μg/mL, strain A): 1.6 µg/mL
MICA(A + B) (MIC of compound in combination with colistin) [2, 8]: 12.5 µg/mL
MICB(A + B) (MIC of colistin in combination with compound) [2, 8]: 0.06 µg/mL
MIC ([3]; agent alone, no adjuvant (polymyxin conc. 0), strain G, read-out: MIC): > 100 µg/mL
MIC [3, 7]: > 100 µg/mL
MIC of colistin in combination with the compound ([3]; Cpd conc. 0.4 μg/mL, strain G): > 0.5 µg/mL
MIC of colistin in combination with the compound ([3]; Cpd conc. 0.8 μg/mL, strain G): 0.5 µg/mL
MIC of colistin in combination with the compound ([3]; Cpd conc. 3.125 μg/mL, strain G): 0.25 µg/mL
MIC of colistin in combination with the compound ([3]; Cpd conc. 6.25 μg/mL, strain G): 0.25 µg/mL
MIC of colistin in combination with the compound ([3]; Cpd conc. 12.5 μg/mL, strain G): 0.25 µg/mL
MIC of colistin in combination with the compound ([3]; Cpd conc. […], strain G): 0.5 µg/mL
MIC of compound in combination with PMB ([3]; PMB 0.25 μg/mL, strain G): > 100 µg/mL
MIC of compound in combination with PMB ([3]; PMB 0.5 μg/mL, strain G): 3.1 µg/mL
MIC of compound in combination with colistin ([3]; colistin 0.06 μg/mL, strain G): > 100 µg/mL
MIC of compound in combination with colistin ([3]; colistin 0.125 μg/mL, strain G): 25 μg/mL and 25|25 μg/mL
MIC of compound in combination with colistin ([3]; colistin 0.25 μg/mL, strain G): 3.1 µg/mL
MIC of compound in combination with colistin ([3]; colistin 0.5 μg/mL, strain G): 0.8 µg/mL
MICA(A + B) (MIC of compound in combination with colistin) [3, 8]: 25 µg/mL
MICB(A + B) (MIC of colistin in combination with compound) [3, 8]: 0.125 µg/mL
MIC of colistin in combination with the compound ([4]; Cpd conc. 0.4 μg/mL, strain C): 0.5 µg/mL
MIC of colistin in combination with the compound ([4]; Cpd conc. 0.8 μg/mL, strain C): 0.5 µg/mL
MIC of colistin in combination with the compound ([4]; Cpd conc. 3.125 μg/mL, strain C): 0.125 µg/mL
MIC of colistin in combination with the compound ([4]; Cpd conc. 6.25 μg/mL, strain C): 0.125 µg/mL
MIC of colistin in combination with the compound ([4]; Cpd conc. 12.5 μg/mL, strain C): 0.125 µg/mL
MIC of colistin in combination with the compound ([4]; Cpd conc. […], strain C): 0.5 µg/mL
MIC ([4]; agent alone, no adjuvant (polymyxin conc. 0), strain C, read-out: MIC): > 100 µg/mL
MIC [4, 7]: > 100 µg/mL
MIC of compound in combination with PMB ([4]; PMB 0.25 μg/mL, strain C): > 100 µg/mL
MIC of compound in combination with PMB ([4]; PMB 0.5 μg/mL, strain C): 1.6 µg/mL
MIC of compound in combination with colistin ([4]; colistin 0.06 μg/mL, strain C): > 100 µg/mL
MIC of compound in combination with colistin ([4]; colistin 0.125 μg/mL, strain C): 3.1 µg/mL
MIC of compound in combination with colistin ([4]; colistin 0.5 μg/mL, strain C): ≤ 0.1 µg/mL
MICA(A + B) (MIC of compound in combination with colistin) [4, 8]: 3.125 µg/mL
MICB(A + B) (MIC of colistin in combination with compound) [4, 8]: 0.125 µg/mL
Structure (SMILES): CCCCCCCCCCCC[C@H]1O[C@H](C)C[C@H](O)[C@H]1O [Compound 5, 1-(4,6-dideoxy-α-D-xylo-hexopyranosyl)dodecane]
MBC of compound in combination with colistin ([1]; colistin 0.125 μg/mL): > 100|> 100 μg/mL
MBC of compound in combination with colistin ([2]; colistin 0.125 μg/mL, strain A): 6.3|6.3 μg/mL
Interpretation (of FICI) ([2]; compound + colistin): Synergy (Values ≤ 0.5 were considered synergistic)
FICI [2, 9]: 0.18
MBC of compound in combination with colistin ([3]; colistin 0.125 μg/mL, strain G): 25|25 μg/mL
FICI [3, 9]: 0.38
MBC of compound in combination with colistin ([4]; colistin 0.125 μg/mL, strain C): 6.3 µg/mL
Interpretation (of FICI) ([4]; compound + colistin): Synergy (Values ≤ 0.5 were considered synergistic)
FICI [4, 9]: 0.27
IC50 ([5]; Colistin 0.25 μg/mL): 64.9 ± 0.98 µM
IC50 ([5]; Colistin 0.5 μg/mL): 64.1 ± 1.09 µM
IC50 ([5]; No polymyxin): 62.4 ± 1.22 µM
IC50 ([5]; PMB 0.25 μg/mL): 61.1 ± 1.06 µM
IC50 ([5]; tested alone (no polymyxin adjuvant)): 18.7 µg/mL
IC50 ([6]; Homo sapiens, HEK-293T, Colistin 0.125 μg/mL): 79.7 ± 1.05 µM
IC50 ([6]; Homo sapiens, HEK-293T, Colistin 0.25 μg/mL): 78.6 ± 3.28 µM
IC50 ([6]; Homo sapiens, HEK-293T, Colistin 0.5 μg/mL): 80 ± 1.69 µM
IC50 ([6]; Homo sapiens, HEK-293T, No polymyxin): 79.74 ± 0.53 µM
IC50 ([6]; Homo sapiens, HEK-293T, PMB 0.125 μg/mL): 79.2 ± 2 µM
IC50 ([6]; Homo sapiens, HEK-293T, PMB 0.25 μg/mL): 79.4 ± 1.58 µM
IC50 ([6]; Homo sapiens, HEK-293T, PMB 0.5 μg/mL): 83.2 ± 0.96 µM
IC50 ([6]; Homo sapiens, HEK-293T, tested alone (no polymyxin adjuvant)): 24 µg/mL
IC50 ([6]; No polymyxin): 79.7 µM

From paper PMC10817917, “Alkyl deoxyglycoside-polymyxin combinations against critical priority carbapenem-resistant gram-negative bacteria” (Scientific Reports, 2024)
